# Measured values taken from the OligoGym collection.
# Where “and” joins values, the source holds several entries; their conditions need not be identical. Equal values may be shown once. After the bases stand the sugars from the 5' end (letter, count) and the backbone: PS all phosphorothioate, else s phosphorothioate and o phosphodiester by linkage. Methylation of C is not given here. e = 2'-O-(2-methoxyethyl) (MOE); k = constrained ethyl (cEt); d = 2'-deoxy (DNA)
# Molecular target: IRF4
# Conditions: ASO
Sequence,"target mRNA inhibition (SK-MEL-28, 4 µM)","target mRNA inhibition (MM.1R, 1 µM)",further results
"GAGCACCGCGCCGGAG (sugars k3 d10 k3, PS)",7%,,
"GAGCCTGGGACTCAGG (sugars k3 d10 k3, PS)",49%,,"target mRNA inhibition (MM.1R, 0.074 µM): 3%; target mRNA inhibition (MM.1R, 0.222 µM): 4%; target mRNA inhibition (MM.1R, 0.666 µM): -3%; target mRNA inhibition (MM.1R, 2 µM): 7%; target mRNA inhibition (SK-MEL-28, 0.185 µM): 7%; target mRNA inhibition (SK-MEL-28, 5 µM): 58%; target mRNA inhibition (SK-MEL-28, 15 µM): 87%"
"GAGCGAAGGGTAAGGC (sugars k3 d10 k3, PS)",38%,,
"GAGCTCTTCCAGATCC (sugars k3 d10 k3, PS)",5%,,
"GAGGAATGAGCACTCT (sugars k3 d10 k3, PS)",26%,,
"GAGGGAGCTCATTTTG (sugars k3 d10 k3, PS)",24%,,
"GAGTAAACTTGGCTGT (sugars k3 d10 k3, PS)",38%,,
"GAGTACCCAAGACTCC (sugars k3 d10 k3, PS)",25%,,
"GAGTCACCTGGAATCT (sugars k4 d8 k4, PS)",6%,,
"GAGTGCAGGAGAGGCT (sugars k3 d10 k3, PS)",31%,,
"GATAACCTGAACATGA (sugars k3 d10 k3, PS)",17%,,
"GATAGATCTGTGGTAA (sugars k3 d10 k3, PS)",,22%,
"GATAGCTGAGCTGATC (sugars k3 d10 k3, PS)",32%,,
"GATAGGAAGCACTGGC (sugars k3 d10 k3, PS)",62%,,
"GATAGGTATACTTAAG (sugars k3 d10 k3, PS)",51%,,
"GATAGTTAAGTACTTG (sugars k3 d10 k3, PS)",49%,,
"GATCATCAATGATGGC (sugars k3 d10 k3, PS)",63%,,
"GATGAGGGACCAGAAC (sugars k3 d10 k3, PS)",20%,,
"GATGTGATAGCTGAGC (sugars kkdddddddddekeke, PS)",,53%,
"GATTAATTCTCCTATG (sugars k3 d10 k3, PS)",,-19%,
"GATTATATACTGGTTG (sugars kdddddddddkekeke, PS)",,12%,
"GATTTATGTTCCTTAA (sugars k3 d10 k3, PS)",47%,,
"GATTTCCGGGTGTGGC (sugars k3 d10 k3, PS)",,,"target mRNA inhibition (MM.1R, 0.0625 µM): 14%; target mRNA inhibition (MM.1R, 0.25 µM): -11%; target mRNA inhibition (MM.1R, 4 µM): 33%"
"GCAAAACCAGTACAGT (sugars k3 d10 k3, PS)",58%,11%,"target mRNA inhibition (MM.1R, 0.0625 µM): 3%; target mRNA inhibition (MM.1R, 0.074 µM): 17%; target mRNA inhibition (MM.1R, 0.222 µM): 0%; target mRNA inhibition (MM.1R, 0.25 µM): 6%; target mRNA inhibition (MM.1R, 0.666 µM): 4%; target mRNA inhibition (MM.1R, 2 µM): 13%; target mRNA inhibition (MM.1R, 4 µM): 26%"

Sequence,"target mRNA inhibition (SK-MEL-28, 4 µM)","target mRNA inhibition (MM.1R, 1 µM)",further results
"GCAAAACGCAGAGCCA (sugars k3 d10 k3, PS)",57%,,
"GCAAACGACAAGTGGC (sugars k3 d10 k3, PS)",,-15%,
"GCAAAGCAAGTGTCTA (sugars k3 d10 k3, PS)",43%,,
"GCAACACGGGAATTTC (sugars k3 d10 k3, PS)",66% and 74%,,
"GCAATCTTAACCTGGA (sugars k3 d10 k3, PS)",,37% and 38%,"target mRNA inhibition (MM.1R, 0.0625 µM): -3% and 3%; target mRNA inhibition (MM.1R, 0.25 µM): 8%; target mRNA inhibition (MM.1R, 4 µM): 70% and 71%"
"GCACACGCAGCCTCTA (sugars k3 d10 k3, PS)",5%,,
"GCACAGCCCTTGGTTA (sugars k3 d10 k3, PS)",,3%,
"GCACAGTCTCTTTTTA (sugars k3 d10 k3, PS)",36%,,
"GCACAGTCTTTTCGCA (sugars k3 d10 k3, PS)",20%,,
"GCACATCAATGTTTTA (sugars k2 d9 e3 k2, PS)",,20%,
"GCACATCAATGTTTTA (sugars k3 d10 k3, PS)",67%,,
"GCACATCAATGTTTTA (sugars kdddddddddkekeke, PS)",,17% and 15%,
"GCACATCAATGTTTTA (sugars kkdddddddddkekek, PS)",,18% and 15%,
"GCACGAGGAAGCATAG (sugars k3 d10 k3, PS)",58%,,
"GCACGGAGAGGGCGAG (sugars k3 d10 k3, PS)",,4%,
"GCAGAAACAGCCCACT (sugars k3 d10 k3, PS)",41%,,
"GCAGAACGAGGTAAAT (sugars k3 d10 k3, PS)",62%,,
"GCAGGGACCGCGCCAG (sugars k3 d10 k3, PS)",,10%,
"GCAGTGATGTCAGGTT (sugars kkdddddddddkekek, PS)",,69%,"target mRNA inhibition (MM.1R, 0.074 µM): 14%; target mRNA inhibition (MM.1R, 0.222 µM): 37%; target mRNA inhibition (MM.1R, 0.666 µM): 60%; target mRNA inhibition (MM.1R, 2 µM): 81%"
"GCAGTGATGTCAGGTT (sugars kkkdddddddddkeke, PS)",,56%,
"GCAGTTCTTAATATCA (sugars k3 d10 k3, PS)",60%,,
"GCATAGAGTCACCTGG (sugars k3 d10 k3, PS)",39%,,
"GCATAGGCATCCTTCC (sugars k3 d10 k3, PS)",,8%,
"GCATGCAAGCCCGTTA (sugars k3 d10 k3, PS)",-1%,,

Sequence,"target mRNA inhibition (SK-MEL-28, 4 µM)","target mRNA inhibition (MM.1R, 1 µM)",further results
"GCATGGATCCTGAGAG (sugars k3 d10 k3, PS)",,11%,
"GCATTATCTACCTCAG (sugars k3 d10 k3, PS)",69%,,
"GCATTTTATCATCCGA (sugars k3 d10 k3, PS)",63%,,
"GCATTTTATCATCCGA (sugars kkdddddddddkekek, PS)",,48%,
"GCATTTTATCATCCGA (sugars kkkddddddddkekek, PS)",,45%,
"GCCAAGGACACCACCT (sugars k3 d10 k3, PS)",-2%,,
"GCCAATCAGATGTCAC (sugars k3 d10 k3, PS)",46%,,
"GCCAATGCAACTGAAT (sugars k3 d10 k3, PS)",36%,,
"GCCACTGGCGGAGCTT (sugars k3 d10 k3, PS)",23%,,
"GCCATGGCTGATCGCT (sugars k3 d10 k3, PS)",30%,,
"GCCCACTGAGTGTGCA (sugars k3 d10 k3, PS)",10%,,
"GCCCATGAGTTGAAAG (sugars k3 d10 k3, PS)",32%,,
"GCCCCGAATAGGACCC (sugars k3 d10 k3, PS)",21%,,
"GCCCGGCCGGGCCTTC (sugars k3 d10 k3, PS)",,-4%,
"GCCGCTGTCGATCTGG (sugars k4 d8 k4, PS)",15%,,
"GCCGTTCCTTTTCAGA (sugars k3 d10 k3, PS)",62%,,
"GCCTAGAGGTGCCTTC (sugars k3 d10 k3, PS)",,13%,
"GCCTAGCATGGATCCT (sugars k3 d10 k3, PS)",,-4%,
"GCCTGAGTTACCGCAT (sugars k3 d10 k3, PS)",70%,13%,"target mRNA inhibition (MM.1R, 0.0625 µM): -1%; target mRNA inhibition (MM.1R, 0.074 µM): -3%; target mRNA inhibition (MM.1R, 0.222 µM): -5%; target mRNA inhibition (MM.1R, 0.25 µM): 0%; target mRNA inhibition (MM.1R, 0.666 µM): -9%; target mRNA inhibition (MM.1R, 2 µM): 5%; target mRNA inhibition (MM.1R, 4 µM): 41%"
"GCCTGGGAGTCCCCGG (sugars k3 d10 k3, PS)",18%,,
"GCCTTAATGTTCAGCT (sugars k3 d10 k3, PS)",49%,,
"GCCTTGAAGAGCGCGG (sugars k3 d10 k3, PS)",9%,,
"GCGAAGAATTTTAGCA (sugars k3 d10 k3, PS)",12%,,
"GCGCAAGTCTACAGCC (sugars k3 d10 k3, PS)",-20%,,

Sequence,"target mRNA inhibition (SK-MEL-28, 4 µM)","target mRNA inhibition (MM.1R, 1 µM)",further results
"GCGCGGAGGGCAGGCG (sugars k3 d10 k3, PS)",,-32%,
"GCGGACGCACGGAGAG (sugars k3 d10 k3, PS)",,-9%,
"GCGGAGGTTCCTTGAG (sugars k3 d10 k3, PS)",44%,,
"GCGGGCACAGCCGTCC (sugars k3 d10 k3, PS)",,-21%,
"GCTAAACCCAAAATAC (sugars k3 d10 k3, PS)",4%,,
"GCTAAACTCCTAAGTA (sugars k3 d10 k3, PS)",30%,,
"GCTAAAGAACACTGCT (sugars k3 d10 k3, PS)",3%,,
"GCTACAAAGAGCACTG (sugars k3 d10 k3, PS)",63%,,
"GCTATCAGGATCTCAA (sugars k3 d10 k3, PS)",38%,,
"GCTCACCGCGCTCATG (sugars k3 d10 k3, PS)",48%,,
"GCTCAGCATGCAAGCC (sugars k3 d10 k3, PS)",0%,,
"GCTCATGCCGAACTCT (sugars k4 d8 k4, PS)",30%,,
"GCTCATGTTTTTTGAC (sugars k3 d10 k3, PS)",56%,,
"GCTCATTTCACTGTAG (sugars k3 d10 k3, PS)",64%,,
"GCTGCCACTGGTAACT (sugars k3 d10 k3, PS)",26%,,
"GCTGTTTATTTCCTAC (sugars k3 d10 k3, PS)",66%,,
"GCTTGAGGTTTTCCTA (sugars k3 d10 k3, PS)",77%,,
"GGAAAGAGCTTTGGTG (sugars k3 d10 k3, PS)",12%,,
"GGAAATACGACAACTT (sugars k3 d10 k3, PS)",63%,,
"GGAACGAAGAGCAGGG (sugars k3 d10 k3, PS)",,12%,
"GGAACTCCCGAGGGCA (sugars k3 d10 k3, PS)",,13%,
"GGAAGTTTACACTGGA (sugars e1 k2 d9 k2 e2, PS)",,55%,"target mRNA inhibition (H929, 0.04 µM): 38% and 36%; target mRNA inhibition (KMS11, 0.2 µM): 75% and 80%; target mRNA inhibition (MM.1R, 0.074 µM): 13%; target mRNA inhibition (MM.1R, 0.222 µM): 35%; target mRNA inhibition (MM.1R, 0.666 µM): 66%; target mRNA inhibition (MM.1R, 2 µM): 87%"
